Earlier results in patent US20230414606A1 (Lake O'Hara LLC, priority 2022, published 2023).

Legend:
[1] = molecular target: CYP3A4 (Homo sapiens, UniProt P08684); conditions: based on the literature, model input
[2] = tested on: CYP2D6
[3] = previous studies, no patients with BMI>35 kg/m2
[4] = based on the literature, model input

Sequence of CYP3A4 (P08684 whole entry): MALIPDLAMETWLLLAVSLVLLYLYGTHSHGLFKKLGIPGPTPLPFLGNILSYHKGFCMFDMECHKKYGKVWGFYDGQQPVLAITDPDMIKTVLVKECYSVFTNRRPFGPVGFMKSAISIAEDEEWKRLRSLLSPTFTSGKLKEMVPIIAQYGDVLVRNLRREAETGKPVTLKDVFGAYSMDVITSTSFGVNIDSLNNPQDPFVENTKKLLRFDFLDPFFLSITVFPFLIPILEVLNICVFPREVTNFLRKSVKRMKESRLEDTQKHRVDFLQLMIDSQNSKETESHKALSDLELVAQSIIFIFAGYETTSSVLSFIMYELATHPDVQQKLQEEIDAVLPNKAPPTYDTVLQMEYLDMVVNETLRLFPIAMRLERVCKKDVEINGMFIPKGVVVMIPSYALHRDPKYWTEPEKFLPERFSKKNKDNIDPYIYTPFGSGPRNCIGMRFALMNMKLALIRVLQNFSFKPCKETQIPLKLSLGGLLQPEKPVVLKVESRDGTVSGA

## O=c1ccc2ccc(OCCCCN3CCN(c4cccc5sccc45)CC3)cc2[nH]1 [brexpiprazole, 7-14-14-(1-Benzothiophen-4-yl)piperazin-1-yllbutoxylquinolin-2(1H)-one]
[1]
  brexpiprazole clearance due to CYP3A4: 46.7%
[2]; CYP2D6 PM
  decrease of baseline clearance by CYP2D6 PM status: ~30%
[2]; [4]
  brexpiprazole clearance due to CYP2D6: 43.3%
[4]
  brexpiprazole clearance due to other routes: 10%
Model assumption, clearance entirely in the liver
  renal clearance: ~1%
[3]
  effect of weight on the pharmacokinetics of brexpiprazole: less than 20%
